The source of these data is patent US4254285A, “1-Hydroxymethyl-1-1-oxo prostane derivatives of the E and F series” (American Cyanamid Company, priority 1979, dated 1981).

Data set [1] relates to bronchospasms elicited by 5-hydroxytryptamine. Kind of data set: Bronchodilator Activity (Konzett Assay), 5-hydroxytryptamine. The class given is in vivo. The conditions noted are these: guinea pig, intravenous, spasmogen 5-hydroxytryptamine, three logarithmic cumulative doses. The protocol: (§1) The bronchodilator activity of some of the PGE compounds of this invention is determined in guinea pigs against bronchospasms elicited by intravenous injections of 5-hydroxytryptamine, histamine or acetylcholine by the Konzett procedure. [See J. Lulling, P. Lievens, F. El Sayed and J. Prignot, Arzneimittel-Forschung, 18, 995 (1968)].
(§2) In the Table B which follows, bronchodilator activity for representative compounds of this invention against one or more of the three spasmogenic agents is expressed as an ED50 determined from the results obtained with three logarithmic cumulative intravenous doses.

For data set [2], the system named is bronchospasms elicited by acetylcholine. Kind of data set: Bronchodilator Activity (Konzett Assay), acetylcholine. The following applies: guinea pig, intravenous, spasmogen acetylcholine, three logarithmic cumulative doses. The class given is in vivo. Here is the method: as §1, §2
The subject of data set [3] is continuous respiratory spasm induced by pilocarpine. The experiment in a line: Bronchodilator Activity (Pilocarpine Assay). The class given is in vivo. The conditions noted are these: dog, aerosol, 3.2 mg/ml; for inhibition at 3200 µg/mL: Canis lupus familiaris, inhaled or nasal. Here is the method:
The PGE compounds of this invention also have bronchodilator activity as determined in a test using dogs anesthetized, artificially ventilated and submitted to a continuous respiratory spasm induced by pilocarpine. Mongrel dogs of either sex weighing between 5 and 10 kg are used. They are premedicated with morphine HCl by subcutaneous injection at 1.5 mg/Kg. An intravenous perfusion of 5% (W/V) chloralose is started 1/2 hour after the morphine injection in such a way that 60 mg/Kg are administered within 15 minutes. After completion, a continuous perfusion of 10 mg/Kg hour is maintained throughout the experiment. The dogs are artificially ventilated by means of a Starling pump at a rate of 20 breaths/minute. The volume is adjusted according to the weight of the animal. [Kleinman and Radford, J. Appl. Physiol., 19, 360 (1964)]. All the measurements are made with the dogs positioned supine in a heated, V-shaped table. Curarization is obtained by succinylcholine chloride using a starting injection of 3 mg/Kg lasting 3 minutes, followed by a continuous perfusion of 0.1 mg/Kg/minute. The respiratory spasm is induced by a starting injection of 400 mcg/Kg of pilocarpine HCl lasting 5 minutes. An increase or decrease in the dose of pilocarpine HCl may occur as a function of the observed effect on airway's resistance. A 15 minute delay is observed before the start of a continuous perfusion of pilocarpine HCl at a dose of 4 mcg/Kg/minute to maintain a constant spasm during the test. A metallic cannula is inserted and fixed, after tracheotomy, into the upper part of the trachea. The two cephalic veins and the two femoral veins are catheterized to inject the various agents. The femoral artery is catheterized to measure the systemic blood pressure. An esophageal balloon (11 cm×2.5 cm) is inserted into the lower third of the oesophagus to measure the endothoracic pressure. The measurement of air flow is made with a […] pneumotachograph connected to the tracheal tube. The transpulmonary pressure is measured as follows: The tracheal cannula is equipped with a stainless steel axial tube (1.5 mm) which is closed at its distal end and projected 2.5 cm beyond the end of the cannula. Three holes with a diameter of one mm are pierced on this latter segment. This tube, which is used to measure the tracheal pressure, is connected to one of the two chambers of a Sanborn 267 B/C differential transducer. The other chamber is connected to the esophageal balloon by means of a polyethylene catheter of the same length and characteristics as the balloon's. The airway's resistance, expressed in cm of water/liter/second, is measured by subtracting from the electrical equivalent of the transpulmonary pressure, a voltage proportional to the flow so as to synchronize the pressure and volume signals on the oscilloscope [Mead and Whittenberger, J. Appl. Physiol, 5, 779 (1953)]. The test compounds are administered by an Aerosol® route. The micronebulizer of a Bird Mark 7 respirator is fitted on the metallic cannula just after the pneumotachograph. The "puff" of the test compound, in Aerosol® is driven by a 2 Kg/cm^2 pressure, allowed into the micronebulizer just during one inspiration cycle. The micronebulizer is fitted on the respiratory tube only during the "puff". It is weighed just before and just after administration to determine the amount of test compound administered.

For data set [4], the system named is bronchospasms elicited by histamine. Kind of data set: Bronchodilator Activity (Konzett Assay), histamine. It counts as in vivo. The following applies: guinea pig, intravenous, spasmogen histamine, three logarithmic cumulative doses. Here is the method: as §1, §2
Data set [5] is classed as in vivo, rat. The following applies: indomethacin-only treatment, 10 mg/kg subcut. Here is the method: (§3) Male Wistar rats (Royal Hart, New Hampton, N.Y.), weighing 190-210 g are distributed among control and treatment groups (5 rats/group) and housed one rat per cage. During the 52 hour test period, the rats are permitted free access to food and drinking water for the first 33 hours but are fasted overnight prior to sacrifice. Indomethacin is suspended (4 mg/ml) in a 1.5% starch-phosphate buffer solution (SPBS). 1,9-dioxo-11α,16-dihydroxy-16-methyl-1-hydroxymethyl-13-transprostene is dissolved at 10 mg/ml in ethanol and then diluted in SPBS to 0.1 mg/ml or to a lower concentration as required. The indomethacin suspension is injected subcutaneously (10 mg/kg) and the prostaglandin suspension is given by gavage (0.5 mg/kg or less) b.i.d. on day 0 and 1. Rats receive only one dose of prostaglandin and indomethacin on day 2 and 6 hours later are killed with chloroform. The stomachs are dissected, opened along the greater curvature, and rinsed briefly in tap water. They are then spread, mucosal surface facing upward and pinned onto uniform size corks (2.5 inch diameter) individually numbered on the back. The identification number for each stomach is unknown to the investigator and the stomachs are randomly graded according to the following scheme:
(§4) ^a Treatment is B.I.D. on days 0 and 1, and once on day 2, six hours
(§5) prior to sacrifice for scoring.

In data set [6] the test system is indomethacin-induced intestinal ulcers. The class given is in vivo, rat. The following applies: indomethacin-only treatment, 10 mg/kg subcut. Here is the method: as §3
Intestines are also removed and examined for the presence of ulcers, which are graded according to the scheme outlined below.
1--Mucosa thin, petechial hemorrhage
2--"Blow-outs", when intestine inflated with air
3--Few ulcers. Gut more fragile than normal, tears along line of mesentery attachements when removed
4--Many large perforating lesions. Adhesions. Gut hemorrhagic and very fragile. Tears readily and cannot be removed intact. Graded in situ.
as §4, §5

In data set [7] the test system is indomethacin-induced gastric ulcers. The class given is in vivo, rat. The conditions noted are these: indomethacin-only treatment, 10 mg/kg subcut. The protocol: as §3
1--Petechial hemorrhage, or pin-point ulcers
2--One or two small ulcers or hemorrhagic erosions
3--Many areas of hemorrhage erosion or ulcers, a few large
4--Massive areas of hemorrhagic erosion or many ulcers, mainly large
as §4, §5

[8] abbreviates: Cavia porcellus, read-out: ED50.
Where [9] appears, read: 5 min, 5 min. after drug administration.
The mark [10] stands for this setting: 0.5 h, 30 min. after drug administration.
Setting [11] is: 1 h, 60 min. after drug administration.

By ED50 is commonly meant the midpoint of the dose-response relation. A word on the inhibition: it is how much of the control response was suppressed. A low value points to a response near the control.

Molecules are shown by their SMILES. Like-named read-outs stand apart in the source and are kept apart here.

For `C=CC(O)(CC=CC1C(O)CC(=O)C1CC=CCCCC(=O)CO)CCCC` (stereo not shown), the 50% effective dose (ED50) was determined as 0.402 µg/kg in data set [1] (setting [8]), 2.66 µg/kg in data set [2] (setting [8]) and 0.254 µg/kg in data set [4] (setting [8]). Moreover, the results for the inhibition at 3200 µg/mL in data set [3] (setting [9]), in data set [3] (setting [10]) and in data set [3] (setting [11]) were 80%, 80% and 66%, respectively.
On to `C=CC(O)(CC=CC1C(O)CC(=O)C1CC=CCCCC(=O)COC(C)=O)CCCC` (stereo not drawn) [1,9-Dioxo-11α,16-dihydroxy-16-vinyl-1-acetoxymethyl-5-cis-13-trans-prostadiene], for which the ED50 came out at 0.795 µg/kg in data set [2] (setting [8]) and 0.78 µg/kg in data set [4] (setting [8]). In addition, the inhibition at 3200 µg/mL in data set [3] (setting [9]) worked out at 92%; in data set [3] (setting [10]), 75%; in data set [3] (setting [11]), 55%.
`CCCCC1(C(O)C=CC2C(O)CC(=O)C2CC=CCCCC(=O)CO)CCC1` (stereo not drawn) [1,9-dioxo-11α,15-dihydroxy-1-hydroxymethyl-16,16-trimethylene-13-trans-5-cis-prostadiene]: the inhibition at 3200 µg/mL in data set [3] (setting [9]) amounted to 80%; in data set [3] (setting [10]) it was 74%; in data set [3] (setting [11]), 68%.
Regarding `CCCCC1(C(O)C=CC2C(O)CC(=O)C2CCCCCCC(=O)CO)CCC1` (stereo not drawn) [1,9-dioxo-11α,15-dihydroxy-1-hydroxymethyl-16,16-trimethylene-13-trans-prostene], the ED50 came to 1.4 µg/kg in data set [1] (setting [8]), 1.3 µg/kg in data set [2] (setting [8]) and 0.734 µg/kg in data set [4] (setting [8]). The inhibition at 3200 µg/mL was determined as 90% in data set [3] (setting [9]), 75% in data set [3] (setting [10]) and 60% in data set [3] (setting [11]).
Consider `CCCCCC(O)C=CC1C(O)CC(=O)C1CCCCCCC(=O)CO` (stereo not drawn) [1,9-dioxo-11α,15α-dihydroxy-1-hydroxymethyl-13-trans-prostene], for which the ED50 in data set [1] (setting [8]) was determined as 0.936 µg/kg; in data set [2] (setting [8]), 3.9 µg/kg; in data set [4] (setting [8]), 0.547 µg/kg. In addition, the inhibition at 3200 µg/mL in data set [3] (setting [9]) is 80%; in data set [3] (setting [10]), 40%; in data set [3] (setting [11]) it was 15%.
As to `CCCCC1(C(O)/C=C/C2C(O)CC(=O)C2C/C=C\CCCC=O)CCC1` (stereo not drawn) [1,9-dioxo-11α,15α-dihydroxy-16,16-trimethylene-5-cis,13-trans-prostadiene], the figures for the ED50 in data set [1], in data set [2] and in data set [4] were 1.49 µg/kg, 0.995 µg/kg and 0.781 µg/kg, respectively.
`C=CC(O)(CC=CC1C(O)CC(=O)C1CCCCCCC(=O)CO)CCCC` (stereo not drawn) [1,9-dioxo-11α,16-dihydroxy-1-hydroxymethyl-16-vinyl-13-trans-prostene]: the ED50 was found to be 0.147 µg/kg in data set [1] (setting [8]), 1.7 µg/kg in data set [2] (setting [8]) and 0.25 µg/kg in data set [4] (setting [8]). Besides, the results for the inhibition at 3200 µg/mL in data set [3] (setting [9]), in data set [3] (setting [10]) and in data set [3] (setting [11]) were 90%, 80% and 70%, respectively.
Consider `CCCCCC(C)(O)CC=CC1C(O)CC(=O)C1CC=CCCCC(=O)CO` (stereo not drawn) [1,9-dioxo-11α,16-dihydroxy-16,20-dimethyl-1-hydroxymethyl-13-trans-5-cis-prostadiene], for which the figures for the ED50 in data set [1] (setting [8]), in data set [2] (setting [8]) and in data set [4] (setting [8]) were 47 µg/kg, 19 µg/kg and 8.8 µg/kg, respectively.
For the molecule `CCCCCC(C)(O)CC=CC1C(O)CC(=O)C1CCCCCCC(=O)CO` (stereo not drawn) [1,9-dioxo-11α,16-dihydroxy-16,20-dimethyl-1-hydroxymethyl-13-trans-prostene], the inhibition at 3200 µg/mL in data set [3] (setting [9]) was found to be 55%; in data set [3] (setting [10]), 70%; in data set [3] (setting [11]) it was 55%.
Take `CCCCC(O)(CC)CC=CC1C(O)CC(=O)C1CC=CCCCC(=O)CO` (stereo not drawn) [1,9-dioxo-11α,16-dihydroxy-16-ethyl-1-hydroxymethyl-5-cis-13-trans-prostadiene]: the inhibition at 3200 µg/mL in data set [3] (setting [9]) worked out at 70%; in data set [3] (setting [10]) it was 50%; in data set [3] (setting [11]), 35%.
Regarding `CCCCCC(C)(O)/C=C/C1CCC(=O)C1CCCCCCC(=O)CO` (stereo not drawn) [1,9-dioxo-15α-hydroxy-15-methyl-1-hydroxymethyl-13-trans-prostene], the ED50 in data set [1] was found to be 0.288 µg/kg; in data set [2], 0.293 µg/kg; in data set [4], 0.373 µg/kg. The entries for the “% Inhibition of pilocarpine induced spasm” value in data set [3] (5 min. after drug administration), in data set [3] (30 min. after drug administration) and in data set [3] (60 min. after drug administration) were 37%, 30% and 30%, respectively.
For `COc1ccc2c(c1)c(CC(=O)O)c(C)n2C(=O)c1ccc(Cl)cc1` [Indomethacin, reference compound], the “Hematocrit (Mean ± S.E.M.)” value in data set [5] was 33.1 ± 2.1. Further, in data set [6], the “Intestinal Ulcer Score (Mean ± S.E.M.)” value is reported as 3.7 ± 0.2. The “Gastric Ulcer Score (Mean ± S.E.M.)” value in data set [7] is 2.9 ± 0.2.
Consider `CCCCCC(O)CCC1CCC(=O)C1CCCCCCC(=O)CO` [l-1,9-dioxo-15(S)-hydroxy-1-hydroxymethyl prostane], for which the ED50 in data set [1] (setting [8]) came out at 0.89 µg/kg; in data set [4] (setting [8]) it was 0.471 µg/kg. Moreover, the inhibition at 3200 µg/mL in data set [3] (setting [9]) came to 70%; in data set [3] (setting [10]), 45%; in data set [3] (setting [11]), 30%.
